The values that follow come from patent US4920121A.

Where two headings read alike, the source gives them in different places.

Data set [1] has as its system male, Charles River mice, CF-1. Briefly: rotorod motor coordination (RMC) test. The protocol:
In order to differentiate between specific antiagressive effects and an inhibition of fighting due to debilitation, rotorod motor coordination (RMC) tests were conducted according to an adaptation of the method of Dunham et al., J. Am. Pharm. Assc. […] The amount of time spent on the rod (maximum of 60 seconds) was recorded and compared with the vehicle treated control animals. […] In comparison, the minimum effective dose (mg/kg i.p.) of buspirone in the isolation induced aggression study was 10.0 mg/kg and greater than 60.0 mg/kg in producing ataxia as evaluated by the rotorod motor coordination study.
A general note: The rotarod test checks motor coordination on a turning rod.

The subject of data set [2] is male CD rats (Charles River). Description: discrete trial conditioned avoidance responding (CAR) test. Format: in vivo. The following applies: Rattus norvegicus, ip, thirty minutes before the test, instant test procedure, read-out: ED50 (reduction in avoidance responding). The method, then: The conditioned avoidance responding (CAR) test was conducted in male CD rats (Charles River) maintained at approximately 400-450 g body weight. Rats trained previously were placed in Plexiglas® experimental chambers equipped with a response lever, house light and sonalert. The steel grid chamber floor is wired for presentation of an electric shock. Each trial consists of a fifteen second warning tone conditioned stimulus, continuing for an additional fifteen seconds accompanied by electric shock (unconditioned stimulus). The rat can terminate a trial at any point by depressing the response lever. A response during the initial fifteen second warning tone ends the trial before shock delivery and is considered an avoidance response. A response occurring during shock delivery is an escape response. […] The ED50 of the test compound is calculated from the percentage reduction in avoidance responding and represents that dose at which only half the responses are made.

For data set [3], the target named is T1, post synaptic 5-HT1A receptor (Rattus norvegicus, UniProt P19327).
T1 sequence (P19327 1-422): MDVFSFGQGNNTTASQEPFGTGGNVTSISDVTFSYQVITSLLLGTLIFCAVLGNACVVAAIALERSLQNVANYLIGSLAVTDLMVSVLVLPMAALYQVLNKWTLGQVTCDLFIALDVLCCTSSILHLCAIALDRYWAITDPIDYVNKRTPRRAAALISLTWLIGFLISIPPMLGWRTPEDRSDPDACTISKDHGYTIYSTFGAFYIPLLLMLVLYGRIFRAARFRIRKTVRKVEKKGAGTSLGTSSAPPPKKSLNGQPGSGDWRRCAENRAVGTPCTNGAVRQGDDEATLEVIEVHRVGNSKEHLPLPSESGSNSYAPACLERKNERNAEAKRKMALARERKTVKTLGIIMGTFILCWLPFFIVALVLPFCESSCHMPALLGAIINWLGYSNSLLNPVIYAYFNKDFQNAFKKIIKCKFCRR
The following applies: for in vivo postsynaptic 5-HT1A activity profile in serotonin syndrome tests: rats, i.p.
Description: (§1) Serotonin syndrome tests were conducted according to the method of Smith et al., Pharmacol. Biochem. and Behav., 24 1513 (1986).
(§2) Male Sprague-Dawley CD rats (Charles River) weighing 200-300 g were housed 6/cage with food and water available ad libitum. Animals were allowed to acclimate to the animal colony for at least 1 week prior to testing. Rats were placed individually into plexiglas® observation cages with a layer of bedding covering the bottom. […] During the 15 minute pretreatment, subjects were scored for the presence of the 5-HT syndrome (agonist activity). After the 8-OH-DPAT injection, all subjects were scored for an additional 15 minutes to identify antagonist activity. Scoring the 5-HT syndrome consisted of rating the following behaviors: (1) forepaw treading, (2) head-weaving, (3) tremor, (4) hindlimb abduction, (5) flattened body posture, and (6 ) Straub tail on a 4-point ranked intensity scale with a maximum score of 18. Results were expressed as mean total score (+/-SEM) for induction of syndrome and for antagonism of syndrome.

For a further data set, the target named is 5-HT1A receptors. The following applies: Martin et al., European J. of Pharmacol. 156 223 (1988); cited from earlier work.
The subject of data set [4] is male CD rats (Charles River). The following applies: i.p., reported by Martin et al. 1988; cited from earlier work.
The subject of data set [5] is male Charles River, CF-1 mice. Description: isolation-induced aggression test. The following applies: for total fighting time (TFT): 60 minutes before testing, 3 minute test, vehicle controls 15.7 seconds.
Description: The isolation-induced aggression test was conducted with male mice in an adaptation of the method of DaVanzo et al., Psychopharmacology, (Berlin) 9 210 (1966) whereby male Charles River, CF-1 mice, 16-20 g in weight were individually housed for a period of three weeks and then trained to attack an intruder mouse which had been group housed (10/cage). […] The total fighting time (TFT) in seconds was recorded during a 3 minute test period upon introduction of the intruder mouse into the cage of the aggressive mouse.
Data set [6] deals with T1, post synaptic 5-HT1A receptor. Description: in vivo. The following applies: ip.
Description: as §1, §2

For orientation: ED50 means the dose at which the effect has come halfway, by size or by number of responders. One may read the Ki as the equilibrium dissociation constant of an inhibitor or competing ligand from its target. In the case of `COc1ccccc1N1CCNCC1`, in data set [1] (intraperitoneally 60 minutes before rotorod), the “dosage at which mice became debilitated (rotorod)” value is on record as at least 30.0 mg/kg. The “debilitating dose relative to dose that antagonized aggressive activity” value in data set [1] (rotorod vs isolation-induced aggression, mice i.p.) was “at least ten times the dose that antagonized aggressive activity”. Moreover, in data set [2], the ED50 worked out at 10.6 mg/kg. Moreover, the “antagonism of serotonin syndrome induced by 8-OH-DPAT” value in data set [3] (33 mg/kg i.p., 15 minutes prior to 5.6 mg/kg i.p. 8-OH-DPAT) was “antagonized the serotonin syndrome”. Moreover, the “induction of 5-HT syndrome (agonist activity)” value in data set [3] (10 and 30 mg/kg i.p., scored during 15 minute pretreatment) is given as “displayed agonist activity”. Moreover, the “in vivo postsynaptic 5-HT1A activity profile in serotonin syndrome tests” value in data set [3] was “weak partial agonist activity”. The Ki at 5-HT1A receptors is 9.5 nM. The “ED50 (reduction in avoidance responding)” value in data set [4] is 5.6 mg/kg. In addition, the “total fighting time (TFT)” value was 5.1 s in data set [5] (0.5 mg/kg i.p.), 0.7 s in data set [5] (1.0 mg/kg i.p.) and 0.1 s in data set [5] (3.0 mg/kg i.p.).
Consider `O=C1CC2(CCCC2)CC(=O)N1CCCCN1CCN(c2ncccn2)CC1` [buspirone, reference compound], for which the “minimum effective dose in producing ataxia (rotorod motor coordination)” value in data set [1] (mouse, in vivo, ip) is “greater than 60.0 mg/kg”. For the same compound, the “in vivo postsynaptic 5-HT1A activity profile in serotonin syndrome tests” value in data set [3] is “partial agonist profile”. The ED50 in data set [6] (read-out: agonist ED50) amounted to 7 mg/kg; in data set [6] (read-out: antagonist ED50) it was 4 mg/kg. In addition, the minimal effective dose in data set [5] (Mus musculus, ip, 1 h, read-out: minimum effective dose in the isolation induced aggression study) was determined as 10 mg/kg.
